Measured values published in patent publication US20240150298A1, “ANTIBACTERIAL COMPOUNDS” (Blacksmith Medicines, Inc., priority 2021, published 2024).
Values after ≈ are worked out from the molar mass of the structure shown. Like-named read-outs stand apart in the source and are kept apart here.

Tests used:
Test in all cases: Bacterial susceptibility testing, MIC by broth microdilution (CLSI)
Format in all cases: cell-based
E. coli ATCC25922 = details: Escherichia coli
Protocol: (§1) Minimal inhibitory concentrations (MIC) were determined by the broth microdilution method in accordance with the Clinical and Laboratory Standards Institute (CLSI) guidelines. In brief, organism suspensions were adjusted to a final inoculum between 3×10^5 and 7×10^5 colony-forming units (CFU)/mL. Drug dilutions and inocula were made in sterile, cation adjusted Mueller-Hinton Broth (Beckton Dickinson). In wells, an inoculum volume of 100 μL was mixed to 2 μL of DMSO with 2-fold serial dilutions of drug. All inoculated microdilution trays were incubated in ambient air at 35° C. for 18-24 h. Following incubation, the lowest concentration of the drug that prevented visible growth (OD600 nm<0.05) was recorded as the MIC. Performance of the assay was monitored by the use of laboratory quality-control strains and compounds with defined MIC spectrum, in accordance with CLSI guidelines.

K. pneumoniae ATCC13883 = details: Klebsiella pneumoniae
Protocol: as §1

P. aeruginosa 209 PAO1 = details: Pseudomonas aeruginosa
Protocol: as §1

P. aeruginosa ATCC27835 = details: Pseudomonas aeruginosa
Protocol: as §1

[1] = ATCC25922, broth microdilution, 35° C., 18-24 h, read-out: MIC E. coli ATCC25922
[2] = ATCC13883, broth microdilution, 35° C., 18-24 h, read-out: MIC K. pneumoniae ATCC13883
[3] = PAO1, broth microdilution, 35° C., 18-24 h, read-out: MIC P. aeruginosa 209 PAO1
[4] = ATCC27835, broth microdilution, 35° C., 18-24 h, read-out: MIC P. aeruginosa ATCC27835
[5] = ATCC25922, read-out: MIC E. coli ATCC25922
[6] = ATCC13883, read-out: MIC K. pneumoniae ATCC13883
[7] = PAO1, read-out: MIC P. aeruginosa 209 PAO1
[8] = ATCC27835, read-out: MIC P. aeruginosa ATCC27835

Structure (SMILES)	MIC (E. coli ATCC25922; [1]) [µg/mL]	MIC (K. pneumoniae ATCC13883; [2]) [µg/mL]	MIC (P. aeruginosa 209 PAO1; [3]) [µg/mL]	MIC (P. aeruginosa ATCC27835; [4]) [µg/mL]	MIC (E. coli ATCC25922; [5]) [µg/mL]	MIC (K. pneumoniae ATCC13883; [6]) [µg/mL]	MIC (P. aeruginosa 209 PAO1; [7]) [µg/mL]	MIC (P. aeruginosa ATCC27835; [8]) [µg/mL]
C[C@H](O)c1nccn1[C@@H](/C=C/c1ccc(-c2ccc(C3CC(CNCCO)C3)cc2)cc1)CO (stereo partly drawn) [Compound 61, (S,E)-2-(2-((S)-1-hydroxyethyl)-1H-imidazol-1-yl)-4-(4′-(3-(((2-hydroxyethyl)amino)methyl)cyclobutyl)-[1,1′-biphenyl]-4-yl) but-3-en-1-ol]	2 (≈ 4.33 µM)	8 (≈ 17.3 µM)	4 (≈ 8.67 µM)	4 (≈ 8.67 µM)				
C[C@H](O)c1nccn1[C@@H](/C=C/c1ccc(-c2ccc(C3CC(CN4CC(S(C)(=O)=O)C4)C3)cc2)cc1)CO (stereo partly drawn) [Compound 58, (S,E)-2-(2-((S)-1-hydroxyethyl)-1H-imidazol-1-yl)-4-(4′-(3-((3-(methylsulfonyl)azetidin-1-yl)methyl)cyclobutyl)-[1,1′-biphenyl]-4-yl)but-3-en-1-ol]	1 (≈ 1.87 µM)	2 (≈ 3.73 µM)	4 (≈ 7.47 µM)	8 (≈ 14.9 µM)				
CC(=O)O[C@@H]1C[C@H]1c1ccc(-c2ccc(/C=C/[C@@H](CO)n3ccnc3[C@H](C)O)cc2)cc1 [Compound 69, (1R,2S)-2-(4′-((S,E)-4-hydroxy-3-(2-((S)-1-hydroxyethyl)-1H-imidazol-1-yl)but-1-en-1-yl)-[1,1′-biphenyl]-4-yl)cyclopropyl acetate]	0.25	0.5	2	4				
C[C@H](O)c1nccn1[C@@H](/C=C/c1ccc(-c2ccc(C3CC(CNCC#N)C3)cc2)cc1)CO (stereo partly drawn) [Compound 56, 2-(((3-(4′-((S,E)-4-hydroxy-3-(2-((S)-1-hydroxyethyl)-1H-imidazol-1-yl)but-1-en-1-yl)-[1,1′-biphenyl]-4-yl)cyclobutyl)methyl)amino) acetonitrile]	0.25 (≈ 0.548 µM)	0.5 (≈ 1.1 µM)	2 (≈ 4.38 µM)	4 (≈ 8.76 µM)				
C[C@H](O)c1nccn1C/C=C/c1ccc(-c2ccc(OCC3(N)CC3)cc2)cc1 [Compound 7, (S,E)-1-(1-(3-(4′-((1-aminocyclopropyl)methoxy)-[1,1′-biphenyl]-4-yl)allyl)-1H-imidazol-2-yl)ethan-1-ol]	0.25 (≈ 0.642 µM)	0.25 (≈ 0.642 µM)	2 (≈ 5.13 µM)	4 (≈ 10.3 µM)				
C[C@H](O)c1nccn1[C@@H](/C=C/c1ccc(-c2ccc(C3CC(NCC(=O)O)C3)cc2)cc1)CO (stereo partly drawn) [Compound 44, (3-(4′-((S,E)-4-hydroxy-3-(2-((S)-1-hydroxyethyl)-1H-imidazol-1-yl)but-1-en-1-yl)-[1,1′-biphenyl]-4-yl)cyclobutyl)glycine]	4 (≈ 8.67 µM)	8 (≈ 17.3 µM)	4 (≈ 8.67 µM)	4 (≈ 8.67 µM)				
C[C@H](O)c1nccn1[C@@H](/C=C/c1ccc(-c2ccc([C@H]3C[C@H](NS(C)(=O)=O)C3)cc2)cc1)CO [Compound 62, N-((1S,3r)-3-(4′-((S,E)-4-hydroxy-3-(2-((S)-1-hydroxyethyl)-1H-imidazol-1-yl)but-1-en-1-yl)-[1,1′-biphenyl]-4-yl)cyclobutyl)methanesulfonamide]					1 (≈ 2.08 µM)	0.5 (≈ 1.04 µM)	1 (≈ 2.08 µM)	2 (≈ 4.15 µM)
C[C@H](O)c1nccn1[C@@H](/C=C/c1ccc(-c2ccc(C3CC3OC(CO)CO)cc2)cc1)CO (stereo partly drawn) [Compound 70, 2-(2-(4′-((S,E)-4-hydroxy-3-(2-((S)-1-hydroxyethyl)-1H-imidazol-1-yl)but-1-en-1-yl)-[1,1′-biphenyl]-4-yl)cyclopropoxy)propane-1,3-diol]	2 (≈ 4.31 µM)	8 (≈ 17.2 µM)	4 (≈ 8.61 µM)	4 (≈ 8.61 µM)				
C[C@H](O)c1nccn1[C@@H](/C=C/c1ccc(-c2ccc(O[C@@H]3CCC[C@H]3O)cc2)cc1)CO [Compound 73, (1R,2R)-2-((4′-((S,E)-4-hydroxy-3-(2-((S)-1-hydroxyethyl)-1H-imidazol-1-yl)but-1-en-1-yl)-[1,1′-biphenyl]-4-yl)oxy)cyclopentan-1-ol]	0.5 (≈ 1.15 µM)	1 (≈ 2.3 µM)	2 (≈ 4.6 µM)	4 (≈ 9.21 µM)				
C[C@H](O)c1nccn1C/C=C/c1ccc(-c2ccc(OCCN3CCN(CCN)CC3)cc2)cc1 [Compound 5, (S,E)-1-(1-(3-(4′-(2-(4-(2-aminoethyl)piperazin-1-yl)ethoxy)-[1,1′-biphenyl]-4-yl)allyl)-1H-imidazol-2-yl)ethan-1-ol]	2 (≈ 4.2 µM)	4 (≈ 8.41 µM)	4 (≈ 8.41 µM)	4 (≈ 8.41 µM)				
C[C@H](O)c1nccn1[C@@H](/C=C/c1ccc(-c2ccc(CO[C@H]3C[C@H]3N)cc2)cc1)CO (racemic) [Compound 16, (S,E)-4-(4′-(((cis)-2-aminocyclopropoxy)methyl)-[1,1′-biphenyl]-4-yl)-2-(2-((S)-1-hydroxyethyl)-1H-imidazol-1-yl)but-3-en-1-ol]	2 (≈ 4.77 µM)	8 (≈ 19.1 µM)	2 (≈ 4.77 µM)	4 (≈ 9.53 µM)				
C[C@H](O)c1nccn1[C@@H](/C=C/c1ccc(-c2ccc(OCC(O)CN)cc2)cc1)CO (mixture of isomers) [Compound 22, (2S,E)-4-(4′-(3-amino-2-hydroxypropoxy)-[1,1′-biphenyl]-4-yl)-2-(2-((S)-1-hydroxyethyl)-1H-imidazol-1-yl)but-3-en-1-ol]	16 (≈ 37.8 µM)	64 (≈ 151 µM)	4 (≈ 9.44 µM)	2 (≈ 4.72 µM)				
C[C@H](O)c1nccn1[C@@H](/C=C/c1ccc(-c2ccc([C@H]3C[C@H](NC(=O)CN(C)C)C3)cc2)cc1)CO [Compound 66, 2-(dimethylamino)-N-((1S,3r)-3-(4′-((S,E)-4-hydroxy-3-(2-((S)-1-hydroxyethyl)-1H-imidazol-1-yl)but-1-en-1-yl)-[1,1′-biphenyl]-4-yl)cyclobutyl)acetamide]					4 (≈ 8.19 µM)	8 (≈ 16.4 µM)	4 (≈ 8.19 µM)	4 (≈ 8.19 µM)
C[C@H](O)c1nccn1[C@@H](/C=C/c1ccc(-c2ccc(C3CC(C(=O)NCC(O)CO)C3)cc2)cc1)CO (stereo partly drawn) [Compound 52, N-(2,3-dihydroxypropyl)-3-(4′-((S,E)-4-hydroxy-3-(2-((S)-1-hydroxyethyl)-1H-imidazol-1-yl)but-1-en-1-yl)-[1,1′-biphenyl]-4-yl)cyclobutane-1-carboxamide]	4 (≈ 7.91 µM)	16 (≈ 31.6 µM)	4 (≈ 7.91 µM)	4 (≈ 7.91 µM)				
C[C@H](O)c1nccn1[C@@H](/C=C/c1ccc(-c2ccc(C3CC(NCc4noc(C(N)=O)n4)C3)cc2)cc1)CO (stereo partly drawn) [Compound 47, 3-(((3-(4′-((S,E)-4-hydroxy-3-(2-((S)-1-hydroxyethyl)-1H-imidazol-1-yl)but-1-en-1-yl)-[1,1′-biphenyl]-4-yl)cyclobutyl)amino)methyl)-1,2,4-oxadiazole-5-carboxamide]	0.5 (≈ 0.946 µM)	1 (≈ 1.89 µM)	4 (≈ 7.57 µM)	4 (≈ 7.57 µM)				
C[C@H](O)c1nccn1[C@@H](/C=C/c1ccc(-c2ccc(C3CC(CNC(C#N)CO)C3)cc2)cc1)CO (stereo partly drawn) [Compound 59, 3-hydroxy-2-(((3-(4′-((S,E)-4-hydroxy-3-(2-((S)-1-hydroxyethyl)-1H-imidazol-1-yl)but-1-en-1-yl)-[1,1′-biphenyl]-4-yl)cyclobutyl)methyl)amino)propane nitrile]	2 (≈ 4.11 µM)	4 (≈ 8.22 µM)	2 (≈ 4.11 µM)	4 (≈ 8.22 µM)				
C[C@H](O)c1nccn1[C@@H](/C=C/c1ccc(-c2ccc([C@H]3C[C@H](NC(=O)CS(C)(=O)=O)C3)cc2)cc1)CO [Compound 63, N-((1S,3r)-3-(4′-((S,E)-4-hydroxy-3-(2-((S)-1-hydroxyethyl)-1H-imidazol-1-yl)but-1-en-1-yl)-[1,1′-biphenyl]-4-yl)cyclobutyl)-2-(methylsulfonyl)acetamide]					2 (≈ 3.82 µM)	4 (≈ 7.64 µM)	2 (≈ 3.82 µM)	4 (≈ 7.64 µM)
